Laboratory results published in patent publication US11116217B2, “Synergistic biocidal compositions containing 5-chloro-2-methylisothiazolin-3-one” (Thor GmbH, priority 2016, dated 2021).
Marks after values point to notes of the source that are not given here.

System: Pseudomonas putida (DSM 25068)
Assay: Minimum inhibitory concentration and synergy index (Kull) of CMIT combinations in Müller-Hinton broth microtiter plates
Type: cell-based
Conditions: 48 hours at 30° C.; for synergy index: SI=Qa/QA+Qb/QB
Excerpt: The synergism of a combination of 5-chloro-2-methylisothiazolin-3-one, containing 0.003 wt. %, in relation to the total proportion of 5-chloro-2-methyl-4-isothiazolin-3-one, of 2-methylisothiazolin-3-one, each time with a biocide/substance selected from the group of 1,2-benzisothiazolin-3-one (BIT), 2-bromo-2-nitropropane-1,3-diol (Bronopol), and zinc, was investigated for a synergistic interaction.
The test organisms used were the Gram-negative bacterium Pseudomonas putida (DSM 25068). For this, mixtures with different concentrations of the respective active substances were prepared and tested in regard to their effect on Pseudomonas putida. The testing was done in Müller-Hinton broth MHB (pH 7.0) with a cell density of 10^6 germs per ml.
The incubation time of the microtiter plates was 48 hours at 30° C. After 48 hours, the batches were evaluated for turbidity due to growth and, in addition, the optical density was determined by photometry. In this way, the minimum inhibitory concentrations (MHK) were determined for the two active substances individually and in combination.
The resulting synergism was represented numerically by calculating the synergy index (SI). The calculation was done by the customary method of F. C. Kull et al., Applied Microbiology, Vol. 9 (1961), p. 538. Loc. cit., the SI is calculated by the following formula: synergy index SI=Qa/QA+Qb/QB Qa=concentration of component A in the mixture A+B QA=concentration of component A as solitary biocide Qb=concentration of component B in the mixture A+B QB=concentration of component B as solitary biocide
If the synergy index has a value over 1, this means that an antagonism is present. If the synergy index takes on the value 1, this means that an addition of the effect of the two biocides/compounds is present. If the synergy index takes on a value below 1, this means that a synergism exists for the two biocides.

[1] = CMIT and BIT, below 1 = synergism
[2] = single agent, MHB pH 7.0, 10^6 germs per ml
[3] = CMIT and zinc (ZnCl2), QB assumed 240 ppm
[4] = CMIT and Bronopol, below 1 = synergism

MIC (Pseudomonas putida, DSM25068, single agent, MHB pH 7.0, 10^6 germs per ml, read-out: concentration as solitary agent indicating an end point (minimum inhibitory concentration, QA/QB)) | Compound | synergy index [1] | concentration as solitary agent indicating an end point (minimum inhibitory concentration, QA/QB) [2] | synergy index [3] | synergy index [4]
 | O=c1[nH]sc2ccccc12 [BIT, 1,2-benzisothiazolin-3-one] | 1.00 | 100 ppm |  | 
 | [Cl-].[Cl-].[Zn+2] [Zn, zinc chloride] |  | > 240* ppm | 1.00 | 
15 µg/mL | O=[N+]([O-])C(Br)(CO)CO [Bronopol, 2-bromo-2-nitropropane-1,3-diol] |  |  |  | 1.00
 | Cn1sc(Cl)cc1=O [CMIT, 5-chloro-2-methylisothiazolin-3-one] | 1.00 | 1.5 ppm | 1.00 | 1.00
